Each structure is given as a SMILES string.

Data on 24 compounds can be found in ChEMBL document CHEMBL2150883, “Development of indole compounds as small molecule fusion inhibitors targeting HIV-1 glycoprotein-41” (J Med Chem, 2011).

The nature of data set [1]: Cytotoxicity against human MAGI-CCR5 cells assessed as cell viability by MTS assay. The class given is cell-based. Background: Formazan colour is commonly taken as a measure of viable cells.
Data set [2] deals with Human immunodeficiency virus 1. Nature of the data set: Antiviral activity against HIV1 Ba-L assessed as inhibition of viral replication by CCR5/CXCR4-tropic MAGI assay in presence of 10% serum. The class given is functional, organism-based. The note with it: Human immunodeficiency virus 1, Ba-L.
A short description of data set [3]: Cytotoxicity against human MAGI-CCR5 cells assessed as cell viability by MTS assay in presence of 2% serum. In kind it is cell-based.
Data set [4] concerns Human immunodeficiency virus 1. Nature of the data set: Antiviral activity against HIV1 3B assessed as inhibition of viral replication by CCR5/CXCR4-tropic MAGI assay in presence of 10% serum. In kind it is functional, organism-based. The note with it: Human immunodeficiency virus 1, 3B.
Data set [5] in a line: Cytotoxicity against human MAGI-CCR5 cells assessed as cell viability by MTS assay in presence of 10% serum. In kind it is cell-based.
Data set [6] can be described thus: Cytotoxicity against human MAGI-CCR5 cells assessed as cell viability by MTS assay in presence of 5% serum. In kind it is cell-based.
Data set [7] concerns Human immunodeficiency virus 1. Nature of the data set: Antiviral activity against HIV1 Ba-L assessed as inhibition of viral replication by CCR5/CXCR4-tropic MAGI assay in presence of 5% serum. In kind it is functional, organism-based. The note with it: Human immunodeficiency virus 1, Ba-L.
The subject of data set [8] is Human immunodeficiency virus 1. Nature of the data set: Antiviral activity against HIV1 Ba-L assessed as inhibition of viral replication by CCR5/CXCR4-tropic MAGI assay in presence of 2% serum. The class given is functional, organism-based. The note with it: Human immunodeficiency virus 1, Ba-L.
A short description of data set [9]: Binding affinity to HIV1 HXB2 gp41 by fluorescence assay. Set-up: species or system Human immunodeficiency virus 1.
Data set [10] is described as follows: Inhibition of gp41 in HIV1 HXB2 assessed as cell-cell fusion inhibition after 6 hrs by luciferase reporter gene assay. The note with it: Human immunodeficiency virus 1, HXB2, 6 h. Background: In a reporter assay the amount or activity of a reporter protein is the signal.

In general, CC50 refers to the concentration giving 50% cytotoxicity. In general, EC50 refers to the concentration at which the effect is half-maximal. As for `O=C(O)c1cc(O)cc(Cc2ccc3cc[nH]c3c2)c1`, the CC50 in data set [1] (MAGI-CCR5 cells) is more than 500 µM; in [3] it was more than 100 µM; in data set [5] it was more than 100 µM; in [6], more than 100 µM. In addition, the half-maximal effective concentration (EC50) in data set [2], in [4], in data set [7] and in [8] was more than 100 µM in each case.
As to `O=C(O)C(=O)c1c[nH]c2cc(Cc3cccc(C(=O)O)c3)ccc12`, in [1] (MAGI-CCR5 cells), the CC50 is more than 100 µM.
Turning to `O=C(O)c1cccc(Cn2ccc3cc(-c4ccc5cc(Cl)ccc5n4)ccc32)c1`, the CC50 in data set [1] (magi-ccr5) was more than 100 µM; in [3], 50.1 µM; in data set [5], more than 100 µM; in data set [6] it was more than 100 µM. The EC50 came to 13.1 µM in [2], 15.5 µM in data set [4], 10.1 µM in [7] and 6.41 µM in [8].
For orientation: Ki means a measure of affinity in units of concentration, obtained from inhibition or displacement. Low values mean a stronger hold on the target, high ones a looser hold on the target. With `O=C(O)c1cccc(Cc2ccc3ccn(-c4cccc(C(=O)O)c4)c3c2)c1`, in [9], the Ki was determined as 45 µM. Moreover, the 50% cytotoxic concentration (CC50) in data set [1] (MAGI-CCR5 cells) is more than 400 µM.
As for `COc1cccc(-n2ccc3ccc(Cc4cccc(C(=O)O)c4)cc32)c1`, the EC50 in data set [2] came out at 67.7 µM; in [4], 61.5 µM; in data set [7], 34 µM; in data set [8], 15.8 µM. Moreover, the CC50 in data set [3], in data set [5] and in data set [6] was more than 100 µM in each case.
As for `O=C(O)c1cccc(Cc2ccc3ccn(Cn4ccc5ccc(Cc6cccc(C(=O)O)c6)cc54)c3c2)c1`, the EC50 was 92.1 µM in data set [2], more than 100 µM in data set [4], 49.6 µM in data set [7] and 14.6 µM in [8]. The CC50 in data set [3], in data set [5] and in data set [6] was more than 100 µM each time.
Take `O=C(O)c1cccc(Cn2ccc3ccc(-c4ccc5ccn(Cc6ccc(F)cc6)c5c4)cc32)c1`: the Ki in data set [9] amounted to 1.1 µM. Besides, the 50% cytotoxic concentration (CC50) in [1] (magi-ccr5) is 17 µM; in data set [3], 52.2 µM; in [5] it was more than 100 µM; in data set [6], 98.5 µM. The EC50 in [2] stood at 4.49 µM; in data set [4], 5.2 µM; in data set [7], 3.3 µM; in [8], 1.56 µM; in [10] it was 540 nM.
Regarding `COc1ccc(Cn2ccc3ccc(Cc4cccc(C(=O)O)c4)cc32)cc1`, the 50% cytotoxic concentration (CC50) in [1] (magi-ccr5) is 100 µM; in data set [3] it was 92.7 µM; in [5] it was more than 100 µM; in data set [6], more than 100 µM. The EC50 in [2] was more than 100 µM; in data set [4], more than 100 µM; in data set [7] it was 91.2 µM; in [8], 55.8 µM.
For `COc1ccc(Cn2ccc3ccc(-c4ccc5ccn(Cc6cccc(C(=O)O)c6)c5c4)cc32)cc1`, the CC50 in [1] (magi-ccr5) was 19 µM; in data set [3] it was 50.1 µM; in data set [5], more than 100 µM; in data set [6], more than 100 µM. Also, the EC50 worked out at 2.38 µM in data set [2], 2.8 µM in data set [4], 2.01 µM in [7] and 0.92 µM in [8].
Turning to `O=C(O)c1cccc(Cn2ccc3ccc(-c4ccc5cc(Cl)ccc5n4)cc32)c1`, the cytotoxic concentration (CC50) in data set [1] (magi-ccr5) is 47 µM; in data set [3], more than 100 µM; in data set [5] it was more than 100 µM; in data set [6] it was more than 100 µM. Also, the EC50 in [2] was more than 100 µM; in [4] it was more than 100 µM; in [7], 88.5 µM; in [8], 48 µM.
On to `O=C(O)c1cccc(Cc2ccc3cc[nH]c3c2)c1`, for which the EC50 in data set [2] was 44.7 µM; in [4], 100 µM; in [7], 34.8 µM; in [8], 15.5 µM. In addition, the CC50 in [3], in data set [5] and in [6] was more than 100 µM each time.
As for `O=C(O)c1ccc(O)c(Cc2ccc3cc[nH]c3c2)c1`, the CC50 is more than 500 µM in data set [1] (MAGI-CCR5 cells), more than 100 µM in data set [3], more than 100 µM in data set [5] and more than 100 µM in data set [6]. The EC50 in [2] is more than 100 µM; in [4], more than 100 µM; in data set [7], 89.3 µM; in [8], 42.7 µM.
Turning to `O=C(O)c1ccc([N+](=O)[O-])c(Cc2ccc3cc[nH]c3c2)c1`, the CC50 in data set [1] (magi-ccr5), in [3], in data set [5] and in data set [6] was more than 100 µM throughout. Also, the EC50 in data set [2] was more than 100 µM; in [4], more than 100 µM; in [7], 82.7 µM; in data set [8], 18.5 µM.
Consider `O=Cc1c[nH]c2cc(Cc3cccc(C(=O)O)c3)ccc12`, for which the CC50 in [1] (MAGI-CCR5 cells) was more than 100 µM.
`O=C(O)c1cccc(Cc2ccc3[nH]ccc3c2)c1`: the 50% cytotoxic concentration (CC50) in data set [1] (MAGI-CCR5 cells) was more than 400 µM; in data set [3] it was more than 100 µM; in [5] it was more than 100 µM; in [6], more than 100 µM. Besides, the EC50 in [2] was 63.5 µM; in [4], more than 100 µM; in [7], 52.4 µM; in data set [8] it was 42.4 µM.
For `COc1cc(Cc2ccc3cc[nH]c3c2)cc(C(=O)O)c1`, the CC50 in [1] (magi-ccr5), in [3], in data set [5] and in data set [6] was more than 100 µM in each case. Further, the EC50 in data set [2] was more than 100 µM; in data set [4] it was more than 100 µM; in data set [7], more than 100 µM; in [8], 8.65 µM.
With `O=C(O)c1cccc(COc2cccc(-c3ccc4ccn(Cc5cccc(C(=O)O)c5)c4c3)c2)c1`, the CC50 was more than 500 µM in [1] (MAGI-CCR5 cells), more than 100 µM in data set [3], more than 100 µM in data set [5] and more than 100 µM in [6]. The EC50 in [2] was more than 100 µM; in [4] it was more than 100 µM; in data set [7], 56.2 µM; in [8], 34.2 µM.
Turning to `O=C(O)c1cccc(Cc2ccc3c(ccn3Cc3cccc(C(=O)O)c3)c2)c1`, in [9], affinity was put at a Ki of 35 µM. For the same compound, the CC50 in data set [1] (MAGI-CCR5 cells) is more than 100 µM. In [10], the EC50 was more than 100000 nM.
As to `O=C(O)c1cccc(Cc2ccc3ccn(Cc4cccc(C(=O)O)c4)c3c2)c1`, the CC50 in data set [1] (MAGI-CCR5 cells) was more than 200 µM.
The same measure, in the same setting: in the case of `O=C(O)c1cccc(-c2ccc3cc[nH]c3c2)c1` it was more than 100 µM.
For `O=C(O)c1cccc(Cn2ccc3ccc(-c4cccc(O)c4)cc32)c1`, the CC50 in data set [1] (magi-ccr5), in [3], in [5] and in data set [6] was more than 100 µM each time. In addition, the concentration for a half-maximal effect (EC50) was 82.7 µM in [2], more than 100 µM in [4], 58.5 µM in data set [7] and 27.6 µM in data set [8].
Take `COc1cccc(-c2ccc3ccn(Cc4cccc(C(=O)O)c4)c3c2)c1`: the CC50 is more than 500 µM in data set [1] (MAGI-CCR5 cells), 67.5 µM in [3], more than 100 µM in [5] and more than 100 µM in data set [6]. Also, the EC50 worked out at 47.4 µM in data set [2], 57.4 µM in data set [4], 36.6 µM in data set [7] and 18 µM in [8].
As to `COc1ccc(C(=O)O)cc1Cc1ccc2cc[nH]c2c1`, the CC50 in data set [1] (magi-ccr5), in [3], in [5] and in data set [6] was more than 100 µM in each case. Further, the EC50 in data set [2], in data set [4], in [7] and in data set [8] was more than 100 µM throughout.
Turning to `COc1ccc(COc2cccc(-c3ccc4ccn(Cc5cccc(C(=O)OCc6cccc(C(=O)O)c6)c5)c4c3)c2)cc1`, the CC50 was more than 100 µM in [1] (magi-ccr5), 58.9 µM in [3], more than 100 µM in data set [5] and more than 100 µM in data set [6]. Besides, the EC50 came out at 22.6 µM in data set [2], 34.3 µM in data set [4], 18.7 µM in [7] and 13.8 µM in [8].
